# Results reported in ChEMBL document CHEMBL5532682, “Recent advances of tryptanthrin and its derivatives as potential anticancer agents” (RSC Med Chem, 2024).
# Columns and labels:
# [1] = test system: NCI/ADR-RES; assay: Growth inhibition of human MCF7ADR cells assessed as reduction in cell viability; assay type: functional
# [2] = test system: U-251; assay: Growth inhibition of human U-251 cells assessed as reduction in cell viability; assay type: functional
# [3] = test system: SW-620; assay: Growth inhibition of human SW620 cells assessed as reduction in cell viability; assay type: functional
# [4] = test system: NCI-H522; assay: Growth inhibition of human NCI-H522 cells assessed as reduction in cell viability; assay type: functional
# [5] = test system: M14; assay: Growth inhibition of human M14 cells assessed as reduction in cell viability; assay type: functional
# [6] = test system: SK-OV-3; assay: Growth inhibition of human SK-OV-3 cells assessed as reduction in cell viability; assay type: functional
# [7] = test system: DU-145; assay: Growth inhibition of human DU-145 cells assessed as reduction in cell viability; assay type: functional
# [8] = test system: A498; assay: Growth inhibition of human A498 cells assessed as reduction in cell viability; assay type: functional
# [9] = test system: A549; assay: Antiproliferative activity against human A549 cells assessed as inhibition of cell viability; assay type: functional, cell-based
# [10] = test system: A549/CDDP; assay: Antiproliferative activity against human A549/DDP cells assessed as inhibition of cell viability; assay type: functional, cell-based
# [11] = Antiproliferative activity against human HL7702 cells assessed as inhibition of cell viability; assay type: toxicity, cell-based; conditions: HL7702 (L02) cells
# [12] = test system: MCF7; assay: Antiproliferative activity against human MCF7 cells assessed as inhibition of cell growth; assay type: functional, cell-based
# [13] = test system: A549; assay: Antiproliferative activity against human A549 cells assessed as inhibition of cell growth; assay type: functional, cell-based
# [14] = test system: HeLa; assay: Antiproliferative activity against human HeLa cells assessed as inhibition of cell growth; assay type: functional, cell-based
# [15] = Cytotoxicity against human HEK293 cells assessed as inhibition of cell growth; assay type: toxicity, cell-based
# [16] = test system: K562; assay: Antiproliferative activity against human K562 cells incubated for 48 hrs; assay type: functional, cell-based; conditions: K562, 48 h
# [17] = test system: HeLa; assay: Antiproliferative activity against human HeLa cells incubated for 48 hrs; assay type: functional, cell-based
# [18] = test system: CT26; assay: Antiproliferative activity against mouse CT26 cells incubated for 48 hrs; assay type: functional, cell-based; conditions: CT26, 48 h
# [19] = test system: Hep 3B2; assay: Antiproliferative activity against human Hep3B cells measured after 48 hrs by MTT assay; assay type: functional, cell-based
# [20] = test system: HL-60; assay: Anticancer activity against human HL-60 cells measured after 48 hrs; assay type: functional, cell-based; conditions: HL-60, 48 h
# [21] = test system: MOLT-4; assay: Anticancer activity against human MOLT-4 cells measured after 48 hrs; assay type: functional, cell-based; conditions: MOLT-4, 48 h
# [22] = test system: K562; assay: Anticancer activity against human K562 cells measured after 48 hrs; assay type: functional, cell-based; conditions: K562, 48 h
# [23] = test system: T-24; assay: Antiproliferative activity against human T24 cells measured after 48 hrs by MTT assay; assay type: functional, cell-based; conditions: T-24, 48 h
# [24] = test system: Bel-7402; assay: Antiproliferative activity against human Bel-7402 cells measured after 48 hrs by MTT assay; assay type: functional, cell-based; conditions: Bel-7402, 48 h
# [25] = test system: MGC-803; assay: Antiproliferative activity against human MGC-803 cells measured after 48 hrs by MTT assay; assay type: functional, cell-based; conditions: MGC-803, 48 h
# [26] = test system: HepG2; assay: Antiproliferative activity against human HepG2 cells measured after 48 hrs by MTT assay; assay type: functional, cell-based; conditions: HepG2, 48 h
# [27] = Antiproliferative activity against human HL7702 cells measured after 48 hrs by MTT assay; assay type: toxicity, cell-based; conditions: HL7702 (L02) cells
# [28] = test system: T-24; assay: Antiproliferative activity against human T24 cells assessed as inhibition of cell growth; assay type: functional, cell-based
# [29] = test system: A549; assay: Antiproliferative activity against human A549 cells assessed as cell growth inhibition; assay type: functional, cell-based
# [30] = test system: SK-OV-3; assay: Antiproliferative activity against human SK-OV-3 cells assessed as inhibition of cell growth; assay type: functional, cell-based
# [31] = test system: HeLa; assay: Antiproliferative activity against human HeLa cells assessed as cell growth inhibition; assay type: functional, cell-based
# [32] = test system: HepG2; assay: Antiproliferative activity against human HepG2 cells assessed as inhibition of cell growth; assay type: functional, cell-based
# [33] = Antiproliferative activity against human HL7702 cells assessed as inhibition of cell growth; assay type: toxicity, cell-based; conditions: HL7702 (L02) cells
# [34] = Antiproliferative activity against mouse MC3T3-E1 cells; assay type: toxicity, cell-based
# [35] = test system: A549; assay: Antiproliferative activity against human A549 cells; assay type: functional, cell-based
# [36] = test system: A549; assay: Antiproliferative activity against human A549 cells measured after 48 hrs by MTT assay; assay type: functional, cell-based; conditions: A549, 48 h
# [37] = test system: HCT-116; assay: Antiproliferative activity against human HCT-116 cells measured after 48 hrs by MTT assay; assay type: functional, cell-based; conditions: HCT-116, 48 h
# [38] = test system: MDA-MB-231; assay: Antiproliferative activity against human MDA-MB-231 cells measured after 48 hrs by MTT assay; assay type: functional, cell-based; conditions: MDA-MB-231, 48 h
# [39] = test system: A549; assay: Antiproliferative activity against human A549 cells incubated by 48 hrs by MTT assay; assay type: functional, cell-based; conditions: A549, 48 h
# [40] = test system: K562; assay: Antiproliferative activity against human K562 cells incubated by 48 hrs by MTT assay; assay type: functional, cell-based; conditions: K562, 48 h
# [41] = test system: HepG2; assay: Antiproliferative activity against human HepG2 cells incubated by 48 hrs by MTT assay; assay type: functional, cell-based; conditions: HepG2, 48 h
# [42] = test system: PC-3; assay: Antiproliferative activity against human PC-3 cells incubated by 48 hrs by MTT assay; assay type: functional, cell-based; conditions: PC-3, 48 h
# [43] = test system: MCF7; assay: Antiproliferative activity against human MCF7 cells; assay type: functional, cell-based
# [44] = test system: NCI/ADR-RES; assay: Antiproliferative activity against human MCF7ADR cells; assay type: functional, cell-based
# [45] = test system: WEHI3B; assay: Antiproliferative activity against mouse WEHI3B cells assessed as inhibition of cell growth measured after 48 hrs; assay type: functional, cell-based
structure (smiles),measurement,setting,value
O=c1c2ccccc2nc2n1-c1ccccc1[C@@]2(O)OCCOc1ccccc1,GI50,[1],> 100 µM
same,GI50,[2],> 100 µM
same,GI50,[3],> 100 µM
same,GI50,[4],> 100 µM
same,GI50,[5],> 100 µM
same,GI50,[6],> 100 µM
same,GI50,[7],> 100 µM
same,GI50,[8],> 100 µM
O=C(CCCCN(Cc1ccccn1)Cc1ccccn1)Nc1ccc2c(c1)C(=O)c1nc3ccccc3c(=O)n1-2,IC50,[9],63.7 µM
same,IC50,[10],52.4 µM
same,IC50,[11],> 100 µM
CCCC[C@]1(O)c2ccccc2-n2c1nc1ccccc1c2=O,GI50,[1],> 100 µM
same,GI50,[2],> 100 µM
same,GI50,[3],> 100 µM
same,GI50,[4],> 100 µM
same,GI50,[5],> 100 µM
same,GI50,[6],> 100 µM
same,GI50,[7],> 100 µM
same,GI50,[8],> 100 µM
N#Cc1ccc(-c2csc(N/N=C3/c4ccccc4N4C(=O)C5C=CC=CC5=NC34)n2)cc1 (configuration not stated),IC50,[12],6.05 µM
same,IC50,[13],8.18 µM
same,IC50,[14],7.08 µM
same,IC50,[15],92.3 µM
Cc1ccc2c(c1)[C@@]1(N[C@H](C(=O)NCC(=O)O)[C@]3(c4ccccc4)[C@@H](c4ccccc4)[C@]13c1ccccc1)c1nc3ccccc3c(=O)n1-2,IC50,[16],10.2 µM
same,IC50,[17],> 50 µM
same,IC50,[18],> 50 µM
O=C1C2C=CC=CC2=NC2/C(=N\Nc3nc(-c4ccc(Cl)cc4)cs3)c3ccccc3N12 (configuration not stated),IC50,[12],18.2 µM
same,IC50,[13],11.1 µM
same,IC50,[14],21.7 µM
same,IC50,[15],80.9 µM
O=C(O)CNC(=O)[C@H]1N[C@@]2(c3ccccc3-n3c2nc2ccccc2c3=O)[C@@]2(c3ccccc3)[C@H](c3ccccc3)[C@@]12c1ccccc1,IC50,[16],> 50 µM
same,IC50,[17],33 µM
same,IC50,[18],10 µM
Nc1ccc2c(c1)C(=O)c1nc3ccccc3c(=O)n1-2,IC50,[19],5.8 µM
same,GI50,[1],1 µM
same,GI50,[2],4.5 µM
same,GI50,[3],25 µM
same,GI50,[4],48 µM
same,GI50,[5],15 µM
same,GI50,[6],25 µM
same,GI50,[7],8 µM
same,GI50,[8],2 µM
O=C1c2cc(Br)ccc2-n2c1nc1ccccc1c2=O,IC50,[19],2 µM
same,IC50,[20],2 µM
same,IC50,[21],8 µM
same,IC50,[22],5 µM
same,GI50,[1],5 µM
same,GI50,[2],0.7 µM
same,GI50,[3],4.8 µM
same,GI50,[4],5 µM
same,GI50,[5],5 µM
same,GI50,[7],2 µM
same,IC50,[23],15.1 µM
same,IC50,[24],27.2 µM
same,IC50,[25],59.1 µM
same,IC50,[26],99.6 µM
same,IC50 at 48 h,[27],50.1 µM
same,IC50,[28],94.1 µM
same,IC50,[29],89.6 µM
same,IC50,[30],89.6 µM
same,IC50,[31],> 150 µM
same,IC50,[32],89.6 µM
same,IC50,[33],50.1 µM
COc1cc(/C=C/C(=O)CC(=O)/C=C/c2ccc(O)c(OC)c2)ccc1O [CURCUMIN],IC50,[9],35.8 µM
same,IC50,[10],67.2 µM
same,IC50,[11],> 100 µM
O=C1c2ccccc2-n2c1nc1ccccc1c2=O [TRYPTANTHRIN],IC50,[34],> 100 µM
same,IC50,[35],74.7 µM
same,IC50,[36],74.7 µM
same,IC50,[37],17.5 µM
same,IC50,[38],> 100 µM
same,IC50,[39],8.25 µM
same,IC50,[40],12 µM
same,IC50,[41],9.51 µM
same,IC50,[42],14.5 µM
same,IC50,[43],94.2 µM
same,IC50,[44],96.4 µM
same,IC50,[9],> 100 µM
same,IC50,[10],> 100 µM
same,IC50,[11],> 100 µM
same,IC50,[23],> 150 µM
same,IC50,[24],41.3 µM
same,IC50,[25],70.2 µM
same,IC50,[26],90.1 µM
same,IC50 at 48 h,[27],90.1 µM
same,IC50,[28],> 150 µM
same,IC50,[29],> 150 µM
same,IC50,[30],85.1 µM
same,IC50,[31],> 150 µM
same,IC50,[32],90.1 µM
same,IC50,[33],90.1 µM
same,IC50,[45],1.5 µM
